# Key:
# Puccinia Recondita = experiment: Preventive fungicidal activity (5 days) against Puccinia Recondita on wheat; type: in vivo; conditions: wheat; for Activity P5 NT (reduction of leaf area affected, parts developed during the test): non-treated parts (NT)
# Protocol: Determination of the preventive fungicidal activity (5 days) against Puccinia Recondita on wheat.
# (§1) Leaves of wheat plants of the Salgemma variety, grown in pots in a conditioned environment at 20° C. and 70% of Relative Humidity (RH) were treated by spraying both sides of the leaves with the compound under examination (see Table 4 hereunder) dispersed in a hydroacetonic solution at 20% by volume of acetone.
# After remaining 5 days in a conditioned environment, the plants were sprayed on both sides of the leaves with an aqueous suspension of conidia of Puccinia Recondita (2 mg of inoculum per 1 ml of solution for infection).
# After spraying, the plants were kept in a humidity-saturated environment at a temperature ranging from 18 to 24° C. for the incubation period of the fungus (1 day).
# At the end of this period, the plants were put in a greenhouse with a relative humidity (RH) of 70% and at a temperature of 18-24° C. for 14 days.
# At the end of this period, the external symptoms of the pathogen appeared and it was therefore possible to proceed with the visual evaluation of the intensity of the infection, both on the parts treated directly with the products (T) and on the parts developed during the implementation of the test (NT).
# (§2) The fungicidal activity is expressed as a percentage of the reduction, with respect to non-treated seedlings (comparison), in the area of the leaf affected by the disease (100=full effectiveness; 0=zero effectiveness).
# wheat seedlings = experiment: Phytotoxicity (percentage of leaf necrosis) on wheat seedlings; type: in vivo; conditions: for Phytotoxicity % N.F. (leaf necrosis): wheat seedlings, scale 0-100
# Protocol: as §1
# At the same time, an evaluation of the phytotoxicity was effected (percentage of leaf necrosis) induced on the wheat seedlings by the application of the products: in this case the evaluation scale ranges from 0 (completely healthy plant) to 100 (completely necrotic plant).
# Uromyces Appendiculatus = experiment: Preventive fungicidal activity (5 days) against Uromyces Appendiculatus on beans; type: in vivo
# Protocol: Determination of the preventive fungicidal activity (5 days) against Uromyces Appendiculatus on beans.
# (§3) Bean plants cv. Borlotto of Vigevano, grown in pots in a conditioned environment, were treated by spraying both sides with the products under examination in a hydroacetonic solution with 20% by volume of acetone (vol./vol.).
# After remaining 5 days in a conditioned environment at 23° C. and 70% of relative humidity, the plants were sprayed on the lower side with an aqueous suspension of spores of Uromyces Appendiculatus (200,000 spores/cc); after remaining 24 hours in a humidity-saturated environment, they were re-transferred to the conditioned environment.
# After this period, the external symptoms of the pathogen appeared and it was therefore possible to proceed with the visual evaluation of the intensity of the infection.
# as §2
# bean seedlings = experiment: Phytotoxicity (percentage of leaf necrosis) on bean seedlings; type: in vivo; conditions: scale 0-100
# Protocol: as §3
# At the same time, an evaluation of the phytotoxicity was effected (percentage of leaf necrosis) induced on the bean seedlings by the application of the products: in this case the evaluation scale ranges from 0 (completely healthy plant) to 100 (completely necrotic plant).
# Sphaerotheca Fuliginea = experiment: Preventive fungicidal activity (7 days) against Sphaerotheca Fuliginea on cucumbers; type: in vivo
# Protocol: Determination of the preventive fungicidal activity (7 days) against Sphaerotheca Fuliginea on cucumbers.
# (§4) Cucumber plants cv. Lungo of China, grown in pots in a conditioned environment were treated by spraying both sides with the products under examination in a hydroacetonic solution with 20% by volume of acetone (vol./vol.).
# 7 days after the treatment, the plants were sprayed on the upper side with an aqueous suspension of spores of Sphaerotheca Fuliginea (200,000 spores/cc); they were then re-transferred to the conditioned environment.
# At the end of the period of incubation (8 days), the evaluation of the intensity of the infection was finally effected.
# as §2
# cucumber seedlings = experiment: Phytotoxicity (percentage of leaf necrosis) on cucumber seedlings; type: in vivo; conditions: scale 0-100
# Protocol: as §4
# At the same time, an evaluation of the phytotoxicity was effected (percentage of leaf necrosis) induced on the cucumber seedlings by the application of the products: in this case the evaluation scale ranges from 0 (completely healthy plant) to 100 (completely necrotic plant).
# [1] = Accelerated stability test of 5% solutions in commercial solvents (54° C., 2 weeks, HPLC); type: physicochemical
# Protocol: Stability tests of the compositions containing compounds having formula (I) in a solvent
# In order to evaluate the chemical stability of the compounds having Formula (I) in a solvent, 5% solutions were prepared, containing 250 mg of compounds Nr. 1, 17, 39 and 40, dissolved in 4.75 g of various commercial solvents used for the preparation of emulsifiable concentrates.
# The resulting solutions were put in an oven at 54° C. for 2 weeks (according to Cipac MT 46.1 update 2012) and then analyzed by means of HPLC in order to verify the concentration of the active ingredient contained therein. The percentage of degradation of the compound having Formula (I) was therefore obtained, after the accelerated stability test.
# Parastagonospora nodorum = experiment: Preventive activity (7 days) against Parastagonospora nodorum on wheat; type: in vivo; conditions: 250 ppm
# Protocol: Determination of the preventive activity (7 days) of the compounds having formula (I) against Parastagonospora nodorum on wheat. […] After remaining 48 hours in a humidity-saturated environment, at 21° C., the plants were transferred for the incubation period (10-12 days) to a conditioned environment at 70% of R.H. and at a temperature of 24° C. At the end of this period, the external symptoms of the pathogen appeared and it was therefore possible to proceed with the visual evaluation of the intensity of the infection. The fungicidal activity was expressed as a percentage of the reduction, with respect to non-treated seedlings (comparison), in the area of the leaf affected by the disease (100=full effectiveness; 0=zero effectiveness). Table 7 indicates the results obtained by carrying out the test described with compound Nr. 12, compared with a compound described in WO2008/101682: […]
# Helmintosporium teres = experiment: Preventive fungicidal activity (7 days) against Helmintosporium teres on barley; type: in vivo; conditions: for Activity P7: 125 ppm, scale 0 (completely infected plant) to 100 (healthy plant)
# Protocol: Determination of the preventive fungicidal activity (7 days) against Helmintosporium teres on barley. […] After remaining 7 days in a conditioned environment, the plants were sprayed on both sides of the leaves with an aqueous suspension of conidia of Helmintosporium teres (50,000 conidia/cc+Tween 20-1 drop/100 ml). The plants were then kept in a controlled environment during the incubation period of the fungus (wet room 1 day for infection, 3 days in a cell with 70% of R.H. and at a temperature of […] for the incubation period, 3 days for completion in a wet room, biological cycle 12 days). At the end of this period (12 days), the fungicidal activity was evaluated according to an evaluation percentage scale from 0 (completely infected plant) to 100 (healthy plant).
compound,measurement,setting,value
"CCN(C)C=Nc1cc(Br)c(SCc2cccc(C(F)(F)F)c2)nc1C [Compound 1, N-ethyl-N-methyl-N′-5bromo-2-methyl-6-{[3-(trifluoromethyl)benzyl]thio}pyridyl-3-formamidine]","Activity P5 NT (reduction of leaf area affected, parts developed during the test)",Puccinia Recondita; 125 ppm,75%
same,"Activity P5 T (reduction of leaf area affected, parts treated directly)",Puccinia Recondita; 125 ppm,98%
same,"Activity P5 NT (reduction of leaf area affected, parts developed during the test)",Puccinia Recondita; 250 ppm,85%
same,"Activity P5 T (reduction of leaf area affected, parts treated directly)",Puccinia Recondita; 250 ppm,100%
same,effectiveness in containing the disease (in words),Puccinia Recondita; summary of Table 4,effective in containing the disease
same,Phytotoxicity % N.F. (leaf necrosis),wheat seedlings; 125 ppm,0 % N.F.
same,Phytotoxicity % N.F. (leaf necrosis),wheat seedlings; 250 ppm,0 % N.F.
same,symptoms of phytotoxicity on the plant (in words),"wheat seedlings; wheat, summary of Table 4",do not show any symptoms of phytotoxicity
same,Activity P5,Uromyces Appendiculatus; 30 ppm,90%
same,Activity P5,Uromyces Appendiculatus; 125 ppm,100%
same,Phytotoxicity % N.F. (leaf necrosis),bean seedlings; 30 ppm,0 % N.F.
same,Phytotoxicity % N.F. (leaf necrosis),bean seedlings; 125 ppm,0 % N.F.
same,Activity P5,Sphaerotheca Fuliginea; 30 ppm,90%
same,Activity P5,Sphaerotheca Fuliginea; 125 ppm,100%
same,Phytotoxicity % N.F. (leaf necrosis),cucumber seedlings; 30 ppm,0 % N.F.
same,Phytotoxicity % N.F. (leaf necrosis),cucumber seedlings; 125 ppm,0 % N.F.
same,percentage of degradation,"[1]; solvent ADMA 10 (N,N-dimethyldecanamide)",1.07%
same,percentage of degradation,[1]; solvent Alkamuls T/20 (ethoxylated sorbitan monolaurate),58.61%
same,percentage of degradation,[1]; solvent CME (rapeseed methyl ester),10.79%
same,percentage of degradation,[1]; solvent FMPC (N-formylmorpholine and propylene carbonate),1.46%
same,percentage of degradation,"[1]; solvent Green 25 (dimethylsulfoxide, acetophenone, 2-ethylhexyl acetate)",2.07%
same,percentage of degradation,[1]; solvent Propylene carbonate,3%
same,percentage of degradation,[1]; solvent Purasolv BL (butyl lactate),100%
same,percentage of degradation,"[1]; solvent RPDE (dimethyl glutarate, dimethyl succinate, dimethyl adipate)",0.78%
N-ethyl-N-methyl-N′-[5-bromo-2-methyl-6-[(1-methyl -2-propoxyethoxy]pyridyl-3-formamidine [CR3],Activity P7,Parastagonospora nodorum,57%
"N-ethyl-N-methyl-N′-[5-bromo-2-methyl-6-[(4-chloro-3-trifluoromethyl]phenoxy]pyridyl-3-formamidine [CR4, reference compound]",effectiveness on Helmintosporium teres (in words),Helmintosporium teres,completely inactive
same,Activity P7,Helmintosporium teres,0%
CCN(C)C=Nc1cc(Br)c(Sc2ccc(Cl)c(C(F)(F)F)c2)nc1C [Compound 8],effectiveness on Helmintosporium teres (in words),Helmintosporium teres,higher effectiveness with respect to the reference compound CR4
same,Activity P7,Helmintosporium teres,30%
